According to US9561193B2, “Oral and skin care compositions based on a 3,3-Dialkyl-1,1-biphenyl-2,2-diol or a 3,3-Dialkenyl-1,1-biphenyl-2,2-diol” (Colgate-Palmolive Company, priority 2011, dated 2017):
Values after ≈ are worked out from the molar mass of the structure shown.

Assays:
Format in all cases: cell-based
[1] = test system: Staphylococcus aureus (S. aureus); experiment: Short Interval Kill Test (SIKT); settings: 1 minute exposure
Description: (§1) Compound (3) was evaluated for its antibacterial efficacy against representative skin bacteria such as Staphylococcus aureus (S. aureus), Corynebacterium minutissimum (C. minutissimum), and Escherichia coli (E. coli). Minimum Inhibitory Concentration (MIC), and a Short Interval Kill Test (SIKT) were performed, and the results are described in Table 6 and Table 7 (below).
(§2) The SIKT test determines the kill effect of a test compound at a predetermined exposure time. The SIKT values presented below in Table 7, were obtained generally according to the following method: An aliquot of Compound (3) in a volume of 1.2 mL is transferred into a sterile test tube, to which 0.2 mL of a freshly prepared bacterial suspension (OD adjusted to 0.1 at 620 nm) is added and gently mixed. The reaction is neutralized at the 1 minute point by adding a neutralizing broth. The resulting mixture is then further diluted (serial ten-fold dilutions) with Letheen broth and an aliquot of each dilution is plated on MCA (Microbial Count Agar) plates for viable bacterial count.

[2] = test system: Escherichia coli (E. coli); experiment: Short Interval Kill Test (SIKT); settings: 1 minute exposure
Description: as §1, §2

A. viscosus = experiment: Minimum Inhibitory Concentration test, oral bacteria; settings: Actinomyces viscosus, trypticase soy broth, 18-24 hours of incubation
Description: (§3) Table 1 (below) describes the antibacterial efficacy (Minimum Inhibitory Concentration test) of Compound (3) [drawing 5] which is an exemplary compound of the present invention, against common oral bacteria, A. viscosus, S. mutans, S. oralis, S. sanguis, and L. casei. Minimum Inhibitory Concentration values are determined generally according to the following method: A series of two-fold dilutions of compound (3) in trypticase soy broth (Catalog No. 211768; Becton Dickinson, Franklin Lakes N.J.) was prepared in a 96 well plate and a constant amount of bacteria was then added to each well. After 18-24 hours of incubation, bacterial growth was measured with a Spectrophotometric Micro-plate Reader (Powerwave 5×, BioTEK, Winooski Vt.) and the MIC values were determined Results are provided in Table 1: […]

S. oralis = experiment: as above; settings: Streptococcus oralis, trypticase soy broth, 18-24 hours of incubation
Description: as §3

S. sanguis = experiment: as above; settings: trypticase soy broth, 18-24 hours of incubation
Description: as §3

S. mutans = experiment: as above; settings: Streptococcus mutans, trypticase soy broth, 18-24 hours of incubation
Description: as §3

L. casei = experiment: as above; settings: Lacticaseibacillus casei, trypticase soy broth, 18-24 hours of incubation
Description: as §3

[3] = test system: Staphylococcus aureus (S. aureus); experiment: Minimum Inhibitory Concentration (MIC), skin bacteria; settings: 18-24 hours of incubation
Description: (§4) Compound (3) was evaluated for its antibacterial efficacy against representative skin bacteria such as Staphylococcus aureus (S. aureus), Corynebacterium minutissimum (C. minutissimum), and Escherichia coli (E. coli). Minimum Inhibitory Concentration (MIC), and a Short Interval Kill Test (SIKT) were performed, and the results are described in Table 6 and Table 7 (below). MIC values against three common skin bacteria were determined for Compound (3) using the following method: A series of two-fold dilutions of Compound (3) was prepared in a 96 well plate and a constant amount of bacteria was added to each well. After 18-24 hours of incubation, bacterial growth was measured with a Spectrophotometric Micro-plate Reader and the MIC values were determined.

[4] = test system: Corynebacterium minutissimum (C. minutissimum); experiment: as above; settings: 18-24 hours of incubation
Description: as §4

[5] = test system: Escherichia coli (E. coli); experiment: as above; settings: 18-24 hours of incubation
Description: as §4

Prostaglandin E2 (PGE2) = experiment: PGE2 EIA anti-inflammatory assay in IL-1β or HKPG stimulated cells; settings: PGE2 level; human embryo palatal mesenchyme cells; IL-1β (10 ng/ml) or heat-killed P. gingivalis (HKPG); overnight incubation
Description: Prostaglandin E2 (PGE2) is a key mediator of periodontal inflammation and its expression is a well-established as a biomarker associated with gingival inflammation. […] The data of Table 9 were obtained generally according to the following method: A 100 μL aliquot of DMEM media (Dulbecco's Modified Eagle Medium) (Invitrogen, Carlsbad, Calif.) containing either IL-1β (10 ng/ml) (Roche Applied Science, Indianapolis Ind.) or 10^8 heat-killed Prophynomonas gingivalis (HKPG) into each well of a sterile 96-well plate (“mirror plate”). An additional 98 μl aliquot of DMEM media containing either IL-1β or HKPG was added to the first well in each row. […]
Each well of a second plate containing growing cells (human embryo palatal mesenchyme cells, catalog no. CRL-1486; ATCC, Manassas, Va.) is washed twice with PBS, after which any remaining media is aspirated from the wells. […] An additional 30 μL aliquot of media is added to each well to adjust the final volume to 100 μL and the level of PGE2 determined using a detection kit generally according to the manufacturer's instructions (PEG2-EIA Kit, catalogue no. 901-001; Assay Designs Inc, Ann Arbor Mich.) and software (GraphPad Prism, GraphPad Software, Inc., San Diego Calif.).

Row | SMILES | SIKT (% Reduction in viable count in 1 min.) [1] | SIKT (% Reduction in viable count in 1 min.) [2] | MIC (A. viscosus) | MIC (S. oralis) | MIC (S. sanguis) | MIC (S. mutans) | MIC (L. casei) | MIC [3] | MIC [4] | MIC [5] | IC50 (Prostaglandin E2 (PGE2))
1 | CCCc1cccc(-c2cccc(CCC)c2O)c1O [Compound (3), [1,1-Biphenyl]-2,2′-diol,3,3′ dipropyl] | 99.99% | 99.55% | 3.9 µg/mL (≈ 14.4 µM) | 7.8 µg/mL (≈ 28.8 µM) | 3.9 µg/mL (≈ 14.4 µM) | 7.8 µg/mL (≈ 28.8 µM) | 7.8 µg/mL (≈ 28.8 µM) | 31.2 µg/mL (≈ 116 µM) | 62.5 µg/mL (≈ 231 µM) | 62.5 µg/mL (≈ 231 µM) | 0.25 ppm
2 | C=CCc1ccc(O)c(-c2cc(CC=C)ccc2O)c1 [Magnolol, reference compound] |  |  |  |  |  |  |  |  |  |  | 0.40 ppm
